Laboratory results taken from patent US20040259806A1 (priority 2001, published 2004).
Read-outs that look alike come from different tables or passages of the source.

Legend:
[1] = system: M. bovis 8; format: in vivo, mice
[2] = system: tuberculosis; assay: SCV-07 therapy of a patient with infiltrative tuberculosis (Example 1); format: in vivo, human; conditions: after SCV-07 0.1 mg daily for 5 days
Experimental: A patient, was admitted to the hospital with infiltrative tuberculosis with destruction and dissemination in the upper lobe of the left lung. […] Lymphopenia (18%) and increased ESR (25 mm/h) were present in the blood count. […] Aggressive traditional antituberculosis therapy was carried out including isoniazid at 600 mg/day intravenously, pyrazinamid at 1500 mg/day per os, rifampicin at 450 mg/day per os.
The traditional therapy was unsuccessful, and SCV-07 treatment was undertaken. Following a course of SCV-07 therapy at 0.1 mg daily for 5 days, bacterial intoxication resolved, destructive cavities closed and the sputum culture test was negative. CD3+ lymphocytes increased and tolerance to other drugs improved.

[3] = system: thymic cells; assay: Thymic cell proliferation (3H-thymidine) from treated infected mice; format: in vivo
Experimental: Mice thymuses were collected aseptically, homogenized, suspended in RPMI-1640 medium and filtered through two layers of sterile gauze. Cell suspensions were washed twice in RPMI-1640 with 2 mM L-glutamine and […] gentamycin, then counted using a Goriaev hemocytometer.
Spleen cells and thymic cells were isolated as described above. In vitro, thymic cells were diluted to 10^7/ml in RPMI-1640 with 2 mM L-glutamine, 80 ìg/ml gentamycin and 4% heat-inactivated fetal calf serum (Sigma, St. Louis, Mo.). Spleen cells were diluted to 3×10^6/ml in RPMI-1640 with 2 mM L-glutamine, 80 ìg/ml gentamycin and 20% inactivated fetal calf serum. 0.5 ìg/ml Concanavalin A (Con A, Sigma, St. Louis, Mo.) was used to stimulate thymic cell proliferation. For spleen cell proliferation, 0.5 ìg/ml Con A, 10 ìg/ml lipopolysaccharide (Sigma, St. Louis, Mo.), and 50 ìg/ml tuberculin purified protein derivative (PPD) were utilized. The assay was carried out in 96-well plates and cell cultures were incubated for 72 hours, or 96 hours if tuberculin was used, at 37° C. in humidified 5% CO2, then pulsed with 5 ìl Ci/ml ^3H-thymidine overnight (approximately 16 h) and harvested on filters using a semi-automated harvester (Titertek™, Flow Laboratories, Norway). Filters were dried and proliferation calculated by ^3H-thymidine incorporation by counting samples in a liquid scintillation counter (LKB 1217 Racketa, Wallace, Sweden). Data was expressed in impulses per minute.

[4] = system: tuberculosis; assay: SCV-07 in patients with destructive lung tuberculosis, 20 treated versus 15 control (Example 3); format: in vivo, human
Experimental: Patients with destructive lung tuberculosis, untreated previously or after inadequate antituberculosis therapy were treated. All patients received antituberculosis therapy consisting of intravenous isoniazid and four to five other drugs and the condition of each patient was examined daily. Major diagnostic criteria included physical examination, chest X-ray, sputum bacterioscopy and culture, broncho alveolar lavage examination. Also included were blood counts performed in all patients prior to SCV-07 therapy and then once per week. Blood biochemical tests including blood fibrinogen, β-lipoproteins, urea, creatinine, C-reactive protein levels, activity of alanine and asparagine transaminases were performed once per month and more frequently if needed. Sputum cultures were taken prior to therapy and one and three months after SCV-07 therapy, and serologic assays including indirect hemaglutination tests.
Bilateral lung injury was found in 11 patients. […] In all cases, the pathological process was destructive. […] Immature cavities were diagnosed in 3 cases. Multiple cavities, X-ray markers and exudative inflammation predominated in all patients.
Females slightly predominated the experimental group (55%). Patients ranged in age from 20 to 40 years of age. All patients had symptoms of toxemia, including 4 patients with severe symptoms.
Immunological studies included counting the percentage of peripheral blood lymphocyte subsets such as CD3+, CD4+, CD8+, CD20+, CD25+ and CD95+ using monoclonal antibodies. The CD4/CD8 index was calculated as well. Elevation of CD3+ and CD4+ cell levels were apparent in 7 out of 14 patients immediately after SCV-07 therapy.
Phytohemagglutinin (PHA) and purified protein derivate (PPD)-induced lymphocytes blasttransformation were also investigated.

[5] = system: IL-4 and IFN-γ; assay: INF-γ and IL-4 concentrations in blood serum; format: in vivo, mice
[6] = system: IL-4 and IFN-γ; assay: IL-4 and INF-γ in spleen cell supernatants (Quantikine ELISA); format: in vivo, mice
Experimental: In RPMI-1640, spleen cells were diluted to a concentration of 10^7/ml with 10% fetal calf serum, 2 mM L-glutamine and 80 ìg/ml gentamycin. A 100 ìl cell suspension was added to each well of a 96-well culture plate and cytokine production was induced by Con A at a final concentration of 2.5 ìg/ml. A control well included RPMI-1640. For 24 hours, cells were incubated at 37° C. and humidified in 5% CO2. Following incubation, […] of supernatant was removed from each well and stored at −70° C.
IL-4 and INF-γ assays in Con A-stimulated spleen cell supernatants were also performed using Quantikine™ ELIZA kits R & D Systems, Minneapolis, Minn.) in accordance with kit instructions. Plates were coated with monoclonal antibodies to either IL-4 or IFN-γ and blocked. Standards and samples were subsequently added. The cells were incubated for 2 h and washed, following with the addition of a colorimetric substrate. After 30 minutes, the reaction was terminated and plates were read at 450 nm using a plate reader (Multiscan™ 3550, BioRad, Japan).

[7] = 24 days after end of therapy, Group 7 (0.1 ìg/kg ip) versus Group 3 (isoniazid control)
[8] = after 10 days, Groups 4, 5, 6 and 7

N[C@H](CCC(=O)N[C@@H](Cc1c[nH]c2ccccc12)C(=O)O)C(=O)O [SCV-07, γ-D-glutamyl-L-tryptophan]
M. bovis growth in spleen culture ([1]; 5 daily injections of 0.01 ìg/kg): decreases
differences between the control and experimental groups ([1]; 10 days and 17 days after termination of treatment, groups other than Group 7): lacked significance
growth of M bovis cultured from spleens [1, 7]: 200±0 CFU
lung weight index [1, 7]: 1.38±0.06
spleen weight index [1, 7]: 1.59±0.25
increase in body weight ([1]; 24 days after end of therapy, Group 7 (SCV-07 0.1 ìg/kg ip, 5 injections, with isoniazid) versus Group 3 (isoniazid control)): 30.8%
M. bovis growth in spleen cultures, significant decrease ([1]; Group 5 (1 ìg/kg ip, 5 injections), 24 days after treatment): this trend did not occur
M. bovis growth in spleen cultures ([1]; Group 6 (1 ìg/kg ip, 10 injections), 24 days after treatment, 275±14.1 CFU in the control): 190±21.5 CFU
lung damage index, difference to isoniazid control (Group 3) ([1]; Group 7 (0.1 ìg/kg ip), 4 days after therapy): Significant differences
lung damage index ([1]; Group 7 (0.1 ìg/kg ip), 10 days and 17 days after termination of treatment): considerably differed from the control
lung damage index, difference to untreated controls (Group 2) ([1]; Groups 5, 7, 8 and 9 (1, 0.1, 0.01 ìg/kg ip and 1 ìg/kg po), 4 days after therapy): significant differences
lung damage index ([1]; all doses, 4 days after the end of 5 days of therapy (Day 28 of infection)): decreased
CD3+ lymphocytes [2]: increased
bacterial intoxication [2]: resolved
destructive cavities [2]: closed
Immune complexes in circulation ([2]; from 84 U, normal level 22-66 U): 69 U
sputum culture test ([2]; traditional therapy was unsuccessful): negative
basal thymic cell proliferation ([3]; SCV-07 treated (Groups 4 to 9) versus control (Groups 1 to 3)): No significant differences
Con A stimulated thymic cell proliferation ([3]; after 4 days, Group 7 (0.1 ìg/kg ip) in comparison to Group 3 (isoniazid control)): significantly higher
Con A stimulated thymic cell proliferation response ([3]; day 17, Groups 7 and 8 (0.1 and 0.01 ìg/kg ip)): essentially the same response as uninfected mice
Con A stimulated thymic cell proliferation ([3]; day 24, Groups 6, 7 and 8 (1 ìg/kg 10 injections ip, 0.1 and 0.01 ìg/kg ip)): higher numbers than the isoniazid control
IL-2 production after stimulation with the mitogens PHA and PPD ([4]; SCV-07 treated patients): greatly increased
Cavity closure, patients ([4]; after 3 months of observation, 13.3% in the control group): 25%
Negative sputum culture tests, patients ([4]; after 3 months, 33.3% in the control group): 65%
Negative sputum culture tests, patients ([4]; after a month of observation, 13.3% in the control group): 30%
Serum bilirubin, creatinine, urea, alanine and asparagine transaminase ([4]; during SCV-07 therapy): stabilized
Hematological signs of tuberculosis activity including white blood cell counts and ESR ([4]; experimental group): mostly diminished
body temperature ([4]; experimental group): decreased in all cases
Moist rates resolved ([4]; experimental group (20 patients)): 16 patients
T-cell blasttransformation responses (PHA, PPD) ([4]; experimental group compared with control group): markedly increased
chest X-ray and tomogram ([4]; following two months of SCV-07 therapy): resolution of the infiltrate-like shadow
CD4+/CD8+ ratio ([4]; immediately after SCV-07 therapy): increased
Serum biochemical inflammation markers such as fibrinogen, β-lipoprotein, CRP ([4]; in one month): decreased
Elevation of CD3+ and CD4+ cell levels, patients ([4]; out of 14 patients, immediately after SCV-07 therapy): 7 patients
Toxemia symptoms substantially resolved ([4]; within a month, experimental group (20 patients), with antituberculosis therapy): half of the patients
IFN-γ levels in blood serum [5, 8]: increased
IL-4 levels in blood serum [5, 8]: decreased
concentration of IFN-γ in blood serum ([5]; after 17 days, Groups 4, 5, 6, 7 and 8 (significantly in group 7 and 8)): increased
IL-4 in blood serum ([5]; after 17 days, Groups 5, 6 and 7): significantly decreased
basal IFN-γ production ([6]; 4 days after therapy, versus isoniazid control mice (Group 3)): failed to differ
Con A stimulated INF-γ production ([6]; 10 days after therapy, Groups 4, 5, 6 and 8): stimulation
Con A stimulated IL-4 production ([6]; 10 days after therapy, Groups 5, 6 and 7): significantly decreased
basal IFN-γ production ([6]; 17 days after therapy, all mice): increase
basal INF-γ production ([6]; end of the experiment, only Group 6 (1 ìg/kg ip, 10 injections)): maintenance of this increase
basal IL-4 production ([6]; mouse, in vivo): No significant changes
basal IFN-γ production ([6]; ten days after therapy, Groups 5, 6 and 7): significant elevation
